Laboratory results published in patent publication US20220000117A1, “METHOD FOR CONTROLLING DISEASES IN SMALL GRAIN CEREALS, SEED OF SMALL GRAIN CEREALS, AND METHOD FOR SUPPRESSING LODGING DAMAGE IN SMALL GRAIN CEREALS” (KUMIAI CHEMICAL INDUSTRY CO., LTD., priority 2019, published 2022).

Experiments:
septoria leaf blotch = test: Test Example 10: control test of septoria leaf blotch of wheat, cup in greenhouse, inoculated, variety ARKEOS (Tables 15 to 19); assay type: in vivo, Septoria tritici
Protocol: (§1) Degree of Disease Occurrence=Σ(Index×Number of Leaves of Index)/(4×Number of Investigated Leaves)×100 (1)
Seed of wheat (variety: ARKEOS) was used, and 100 ml of suspension waters each containing the compound shown in Table 15 at an amount shown in Table 15 (synthesis was performed in accordance with a known method, a liquid dissolved in a small amount of DMSO or formulated 10% wettable powder was used) were prepared. Seed having a mass of 1 kg was mixed into the suspension water with a rate shown in Examples of Table 15, and air-dried, and then, 5 seeds were sown in a plastic cup having a diameter of 6 cm containing mixed soil of river sand and horticultural soil and managed in a greenhouse. In Comparative Examples, 20 ml of suspension water of an active ingredient, which had been adjusted to have a concentration shown in Table 15 to 19, was sprayed in a frame of 45 cm×45 cm in which a pot of wheat seedlings was placed (corresponding to 1000 L/ha) 14 days after seeding. On day 14 after seeding, a spore suspension in which conidiospores of septoria leaf blotch are suspended was sprayed and inoculated on leaves of wheat seedlings (after the sprayed liquid was dried in the case of Comparative Examples), a lesion area ratio of septoria leaf blotch in a second leaf was investigated approximately 35 days after seeding according to the criteria in Table 1, and the degree of disease occurrence was calculated by the above calculation formula (1).

powdery mildew = test: Test Example 9: control test of wheat powdery mildew, cup in greenhouse, inoculated, Norin No. 61 (Tables 10 to 14); assay type: in vivo, Blumeria graminis; parameters: key to Degree of Disease Occurrence: Σ(index×leaves)/(4×leaves investigated)×100; 0 = no disease, 100 = max
Protocol: as §1
Seed of wheat (variety: Norin No. 61) was used, and 100 ml of suspension waters each containing the compound shown in Table 10 at an amount shown in […] (synthesis was performed in accordance with a known method, a solution dissolved in DMSO or formulated 10% wettable powder was used) were prepared. The seed having a mass of 1 kg of wheat was mixed into the suspension water with a chemical treated amount shown in Table 10, and air-dried, and then, 5 seeds were sown in a plastic cup having a diameter of 6 cm containing river sand and managed in a greenhouse. In Comparative Examples, 20 ml of the suspension water of an active ingredient, which had been adjusted to have a concentration shown in Table 10, was sprayed in a frame of 45 cm×45 cm in which a pot of wheat seedlings was placed (corresponding to 1000 L/ha) 14 days after seeding. On day 14 after seeding, conidiospores of powdery mildew were sifted over leaves of wheat seedlings and inoculated onto the leaves (after the sprayed liquid was dried in the case of Comparative Examples), a lesion area ratio of powdery mildew in a first leaf was investigated 21 days after seeding according to the criteria in Table 1, and the degree of disease occurrence was calculated by the above calculation formula (1).

[1] = Table 12 run (different day), Foliage Treatment, spray 10 ppm (10 g/ha)
[2] = Table 12 run (different day), Foliage Treatment, spray 50 ppm (50 g/ha)
[3] = Table 12 run (different day), Seed Treatment 0.1 g/Seed 1 kg (10 g/ha)
[4] = Table 12 run (different day), Seed Treatment 0.5 g/Seed 1 kg (50 g/ha)
[5] = Table 10 run, Foliage Treatment, spray 10 ppm (10 g/ha) day 14, first leaf, 21 days after seeding
[6] = Table 10 run, Foliage Treatment, spray 50 ppm (50 g/ha) day 14, first leaf, 21 days after seeding
[7] = Table 10 run, Foliage Treatment, spray 100 ppm (100 g/ha) day 14, first leaf, 21 days after seeding
[8] = Table 10 run, Seed Treatment 0.1 g/Seed 1 kg (10 g/ha), first leaf, 21 days after seeding
[9] = Table 10 run, Seed Treatment 0.5 g/Seed 1 kg (50 g/ha), first leaf, 21 days after seeding
[10] = Table 10 run, Seed Treatment 1 g/Seed 1 kg (100 g/ha), first leaf, 21 days after seeding
[11] = Table 11 run (different day), Foliage Treatment, spray 50 ppm (50 g/ha)
[12] = Table 11 run (different day), Seed Treatment 0.5 g/Seed 1 kg (50 g/ha)
[13] = Table 13 run (different day), Foliage Treatment, spray 50 ppm (50 g/ha)
[14] = Table 13 run (different day), Seed Treatment 0.5 g/Seed 1 kg (50 g/ha)
[15] = Table 13 run (different day), Foliage Treatment, spray 5 ppm (5 g/ha)
[16] = Table 13 run (different day), Foliage Treatment, spray 10 ppm (10 g/ha)
[17] = Table 13 run (different day), Seed Treatment 0.05 g/Seed 1 kg (5 g/ha)
[18] = Table 13 run (different day), Seed Treatment 0.1 g/Seed 1 kg (10 g/ha)
[19] = Table 11 run (different day), Foliage Treatment, spray 10 ppm (10 g/ha)
[20] = Table 11 run (different day), Seed Treatment 0.1 g/Seed 1 kg (10 g/ha)
[21] = Table 10 run, Foliage Treatment, spray 5 ppm (5 g/ha) day 14, first leaf, 21 days after seeding
[22] = Table 10 run, Seed Treatment 0.05 g/Seed 1 kg (5 g/ha), first leaf, 21 days after seeding

N=C(Nc1ccccc1)c1snc(Cl)c1Cl [Compound (16)]
Degree of Disease Occurrence (septoria leaf blotch; Table 19, Foliage Treatment, spray 50 ppm suspension water (corresponding to 50 g/ha) 14 days after seeding, untreated 45.0): 38.3 | Disease Leaf Rate (%) (septoria leaf blotch; Table 19, Foliage Treatment, spray 50 ppm suspension water (corresponding to 50 g/ha) 14 days after seeding, untreated 98.0): 99.7% | Degree of Disease Occurrence (septoria leaf blotch; Table 19, Seed Treatment, 0.5 g/Seed 1 kg (corresponding to 50 g/ha), untreated 45.0): 29.4 | Disease Leaf Rate (%) (septoria leaf blotch; Table 19, Seed Treatment, 0.5 g/Seed 1 kg (corresponding to 50 g/ha), untreated 98.0): 82.5% | Degree of Disease Occurrence (powdery mildew; [1]): 63.3 | Disease Leaf Rate (%) (powdery mildew; [1]): 100.0% | Degree of Disease Occurrence (powdery mildew; [2]): 43.3 | Disease Leaf Rate (%) (powdery mildew; [2]): 80.0% | Degree of Disease Occurrence (powdery mildew; [3]): 22.5 | Disease Leaf Rate (%) (powdery mildew; [3]): 65.0% | Degree of Disease Occurrence (powdery mildew; [4]): 6.3 | Disease Leaf Rate (%) (powdery mildew; [4]): 16.7% | Degree of Disease Occurrence (powdery mildew; Table 14, Foliage Treatment, spray 10 ppm suspension water (corresponding to 10 g/ha) 14 days after seeding, untreated 70.0): 32.6 | Disease Leaf Rate (%) (powdery mildew; Table 14, Foliage Treatment, spray 10 ppm suspension water (corresponding to 10 g/ha) 14 days after seeding, untreated 100.0): 80.6% | Degree of Disease Occurrence (powdery mildew; Table 14, Foliage Treatment, spray 50 ppm suspension water (corresponding to 50 g/ha) 14 days after seeding, untreated 70.0): 19.6 | Disease Leaf Rate (%) (powdery mildew; Table 14, Foliage Treatment, spray 50 ppm suspension water (corresponding to 50 g/ha) 14 days after seeding, untreated 100.0): 53.3% | Degree of Disease Occurrence (powdery mildew; Table 14, Foliage Treatment, spray 100 ppm suspension water (corresponding to 100 g/ha) 14 days after seeding, untreated 70.0): 29.2 | Disease Leaf Rate (%) (powdery mildew; Table 14, Foliage Treatment, spray 100 ppm suspension water (corresponding to 100 g/ha) 14 days after seeding, untreated 100.0): 80.6% | Degree of Disease Occurrence (powdery mildew; Table 14, Seed Treatment, 0.1 g/Seed 1 kg (corresponding to 10 g/ha), first leaf, 21 days after seeding, untreated 70.0): 15.2 | Disease Leaf Rate (%) (powdery mildew; Table 14, Seed Treatment, 0.1 g/Seed 1 kg (corresponding to 10 g/ha), first leaf, 21 days after seeding, untreated 100.0): 60.8% | Degree of Disease Occurrence (powdery mildew; Table 14, Seed Treatment, 0.5 g/Seed 1 kg (corresponding to 50 g/ha), first leaf, 21 days after seeding, untreated 70.0): 8.9 | Disease Leaf Rate (%) (powdery mildew; Table 14, Seed Treatment, 0.5 g/Seed 1 kg (corresponding to 50 g/ha), first leaf, 21 days after seeding, untreated 100.0): 35.4% | Degree of Disease Occurrence (powdery mildew; Table 14, Seed Treatment, 1 g/Seed 1 kg (corresponding to 100 g/ha), first leaf, 21 days after seeding, untreated 70.0): 18.2 | Disease Leaf Rate (%) (powdery mildew; Table 14, Seed Treatment, 1 g/Seed 1 kg (corresponding to 100 g/ha), first leaf, 21 days after seeding, untreated 100.0): 50.0%

N#Cc1snc(Cl)c1Cl [Compound (2)]
Degree of Disease Occurrence (septoria leaf blotch; Table 16, Foliage Treatment, spray 100 ppm suspension water (corresponding to 100 g/ha) 14 days after seeding, untreated 57.1): 51.0 | Disease Leaf Rate (%) (septoria leaf blotch; Table 16, Foliage Treatment, spray 100 ppm suspension water (corresponding to 100 g/ha) 14 days after seeding, untreated 93.3): 100.0% | Degree of Disease Occurrence (septoria leaf blotch; Table 16, Seed Treatment, 1 g/Seed 1 kg (corresponding to 100 g/ha), untreated 57.1): 37.5 | Disease Leaf Rate (%) (septoria leaf blotch; Table 16, Seed Treatment, 1 g/Seed 1 kg (corresponding to 100 g/ha), untreated 93.3): 81.3% | Degree of Disease Occurrence (powdery mildew; [5]): 59.4 | Disease Leaf Rate (%) (powdery mildew; [5]): 100.0% | Degree of Disease Occurrence (powdery mildew; [6]): 56.3 | Disease Leaf Rate (%) (powdery mildew; [6]): 100.0% | Degree of Disease Occurrence (powdery mildew; [7]): 47.9 | Disease Leaf Rate (%) (powdery mildew; [7]): 95.8% | Degree of Disease Occurrence (powdery mildew; [8]): 45.9 | Disease Leaf Rate (%) (powdery mildew; [8]): 100.0% | Degree of Disease Occurrence (powdery mildew; [9]): 41.0 | Disease Leaf Rate (%) (powdery mildew; [9]): 93.8% | Degree of Disease Occurrence (powdery mildew; [10]): 28.9 | Disease Leaf Rate (%) (powdery mildew; [10]): 87.5%

COC(=O)c1snc(Cl)c1Cl [Compound (7)]
Degree of Disease Occurrence (septoria leaf blotch; Table 17, Foliage Treatment, spray 10 ppm suspension water (corresponding to 10 g/ha) 14 days after seeding, untreated 50.0): 41.7 | Disease Leaf Rate (%) (septoria leaf blotch; Table 17, Foliage Treatment, spray 10 ppm suspension water (corresponding to 10 g/ha) 14 days after seeding, untreated 100.0): 100.0% | Degree of Disease Occurrence (septoria leaf blotch; Table 17, Foliage Treatment, spray 100 ppm suspension water (corresponding to 100 g/ha) 14 days after seeding, untreated 50.0): 50.0 | Disease Leaf Rate (%) (septoria leaf blotch; Table 17, Foliage Treatment, spray 100 ppm suspension water (corresponding to 100 g/ha) 14 days after seeding, untreated 100.0): 93.3% | Degree of Disease Occurrence (septoria leaf blotch; Table 17, Seed Treatment, 0.1 g/Seed 1 kg (corresponding to 10 g/ha), untreated 50.0): 22.5 | Disease Leaf Rate (%) (septoria leaf blotch; Table 17, Seed Treatment, 0.1 g/Seed 1 kg (corresponding to 10 g/ha), untreated 100.0): 68.8% | Degree of Disease Occurrence (septoria leaf blotch; Table 17, Seed Treatment, 1 g/Seed 1 kg (corresponding to 100 g/ha), untreated 50.0): 19.4 | Disease Leaf Rate (%) (septoria leaf blotch; Table 17, Seed Treatment, 1 g/Seed 1 kg (corresponding to 100 g/ha), untreated 100.0): 77.5% | Degree of Disease Occurrence (powdery mildew; [11]): 94.8 | Disease Leaf Rate (%) (powdery mildew; [11]): 100% | Degree of Disease Occurrence (powdery mildew; [12]): 78.8 | Disease Leaf Rate (%) (powdery mildew; [12]): 100% | Degree of Disease Occurrence (powdery mildew; [13]): 77.1 | Disease Leaf Rate (%) (powdery mildew; [13]): 100.0% | Degree of Disease Occurrence (powdery mildew; [14]): 61.3 | Disease Leaf Rate (%) (powdery mildew; [14]): 100.0%

O=C(OCc1snc(Cl)c1Cl)c1ccccc1 [Compound (5)]
Degree of Disease Occurrence (powdery mildew; [11]): 90.5 | Disease Leaf Rate (%) (powdery mildew; [11]): 100% | Degree of Disease Occurrence (powdery mildew; [12]): 57.0 | Disease Leaf Rate (%) (powdery mildew; [12]): 95% | Degree of Disease Occurrence (powdery mildew; [15]): 100.0 | Disease Leaf Rate (%) (powdery mildew; [15]): 100.0% | Degree of Disease Occurrence (powdery mildew; [16]): 62.4 | Disease Leaf Rate (%) (powdery mildew; [16]): 100.0% | Degree of Disease Occurrence (powdery mildew; [13]): 86.7 | Disease Leaf Rate (%) (powdery mildew; [13]): 100.0% | Degree of Disease Occurrence (powdery mildew; [17]): 66.1 | Disease Leaf Rate (%) (powdery mildew; [17]): 100.0% | Degree of Disease Occurrence (powdery mildew; [18]): 58.1 | Disease Leaf Rate (%) (powdery mildew; [18]): 100.0% | Degree of Disease Occurrence (powdery mildew; [14]): 40.6 | Disease Leaf Rate (%) (powdery mildew; [14]): 95.0%

CC(=O)OCc1snc(Cl)c1Cl [Compound (4)]
Degree of Disease Occurrence (powdery mildew; [19]): 100.0 | Disease Leaf Rate (%) (powdery mildew; [19]): 100% | Degree of Disease Occurrence (powdery mildew; [11]): 90.6 | Disease Leaf Rate (%) (powdery mildew; [11]): 100% | Degree of Disease Occurrence (powdery mildew; [20]): 74.1 | Disease Leaf Rate (%) (powdery mildew; [20]): 100% | Degree of Disease Occurrence (powdery mildew; [12]): 57.2 | Disease Leaf Rate (%) (powdery mildew; [12]): 100% | Degree of Disease Occurrence (powdery mildew; [16]): 81.7 | Disease Leaf Rate (%) (powdery mildew; [16]): 100.0% | Degree of Disease Occurrence (powdery mildew; [13]): 71.5 | Disease Leaf Rate (%) (powdery mildew; [13]): 100.0% | Degree of Disease Occurrence (powdery mildew; [18]): 47.9 | Disease Leaf Rate (%) (powdery mildew; [18]): 100.0% | Degree of Disease Occurrence (powdery mildew; [14]): 49.1 | Disease Leaf Rate (%) (powdery mildew; [14]): 100.0%

NC(=O)c1snc(Cl)c1Cl [Compound (9)]
Degree of Disease Occurrence (powdery mildew; [21]): 57.3 | Disease Leaf Rate (%) (powdery mildew; [21]): 100.0% | Degree of Disease Occurrence (powdery mildew; [5]): 63.5 | Disease Leaf Rate (%) (powdery mildew; [5]): 100.0% | Degree of Disease Occurrence (powdery mildew; [22]): 38.3 | Disease Leaf Rate (%) (powdery mildew; [22]): 96.9% | Degree of Disease Occurrence (powdery mildew; [8]): 33.0 | Disease Leaf Rate (%) (powdery mildew; [8]): 83.9%
